Results reported in US7932270B2 (Cytokinetics, Inc., priority 2006, dated 2011).

Biological target: T1, chicken gizzard smooth muscle myosin subfragment-1 chemically crosslinked to cardiac or skeletal actin (Gallus gallus, UniProt P10587)
T1 construct: chicken gizzard smooth muscle myosin subfragment-1; from tissue; host or cells: chicken gizzard
Assay: Smooth muscle myosin ATPase dose response assay (pyruvate kinase/horseradish peroxidase/pyruvate oxidase-coupled, amplex red fluorescence)
Type: biochemical
Details: read-out: IC50 Arithmetic Mean
Procedure, shortened: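 EDC/NHS-crosslinked S1–actin, amount set per prep by rate titration. Buffer: 12 mM K-PIPES pH 7.00 (22° C), 100 mM KCl, 2 mM MgCl2, 0.15 mM ATP, 0.1 mM PEP, 2 mM KPi, 0.1 mM amplex red. Read ex 480/em 615 nm; IC50 = midpoint, 4-param Hill fit.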

T1 sequence (P02607 2-151): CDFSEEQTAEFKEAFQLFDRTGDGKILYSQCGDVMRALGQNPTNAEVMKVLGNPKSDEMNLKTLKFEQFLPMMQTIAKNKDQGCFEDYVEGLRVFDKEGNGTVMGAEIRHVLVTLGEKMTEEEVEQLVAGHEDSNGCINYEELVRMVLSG
T1 sequence (P10587 84-789): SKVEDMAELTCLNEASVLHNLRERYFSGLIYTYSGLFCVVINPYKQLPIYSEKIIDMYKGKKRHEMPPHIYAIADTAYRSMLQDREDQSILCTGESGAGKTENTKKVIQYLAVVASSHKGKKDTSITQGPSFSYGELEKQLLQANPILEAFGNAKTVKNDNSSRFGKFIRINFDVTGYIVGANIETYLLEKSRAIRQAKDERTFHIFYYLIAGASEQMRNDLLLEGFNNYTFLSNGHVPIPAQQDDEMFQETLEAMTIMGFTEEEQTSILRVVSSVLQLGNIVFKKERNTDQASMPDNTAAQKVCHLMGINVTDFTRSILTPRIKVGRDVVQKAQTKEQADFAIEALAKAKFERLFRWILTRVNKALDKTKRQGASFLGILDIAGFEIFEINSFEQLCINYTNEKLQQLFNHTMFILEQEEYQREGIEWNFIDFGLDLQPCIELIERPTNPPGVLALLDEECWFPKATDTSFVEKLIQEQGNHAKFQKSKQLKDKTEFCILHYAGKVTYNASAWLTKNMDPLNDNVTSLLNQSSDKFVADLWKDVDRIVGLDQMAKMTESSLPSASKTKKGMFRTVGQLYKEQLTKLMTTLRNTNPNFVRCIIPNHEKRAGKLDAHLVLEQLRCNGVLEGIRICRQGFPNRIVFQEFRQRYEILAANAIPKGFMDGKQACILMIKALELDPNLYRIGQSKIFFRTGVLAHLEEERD

Row | Compound | IC50 [nM]
1 | N#Cc1ccccc1-c1ccc(C(=O)NCC2CCN(C(=O)CCCN)C2)c(NCCc2cccc(F)c2)n1 (centres unmarked) [N-{[1-(4-aminobutanoyl)pyrrolidin-3-yl]methyl}(6-(2-cyanophenyl)-2-{[2-(3-fluorophenyl)ethyl]amino}(3-pyridyl))carboxamide] | 433
2 | CC(=O)N1CC[C@@H](CNC(=O)c2ccc(-c3ccccc3)nc2NCCc2ccccn2)C1 [N-[((3S)-1-acetylpyrrolidin-3-yl)methyl]{6-phenyl-2-[(2-(2-pyridyl)ethyl)amino](3-pyridyl)}carboxamide] | 25200
3 | CN1CCN(C(=O)CCCN)C[C@@H]1CNC(=O)c1ccc(-c2ccccc2C#N)nc1NCCc1cccc(F)c1 [N-{[(2S)-4-(4-aminobutanoyl)-1-methylpiperazin-2-yl]methyl}(6-(2-cyanophenyl)-2-{[2-(3-fluorophenyl)ethyl]amino}(3-pyridyl))carboxamide] | 6720
4 | CN(CCNC(=O)c1ccc(-c2ccccc2C#N)nc1NCCc1cccc(F)c1)C(=O)OC(C)(C)C [N-{2-[(tert-butoxy)-N-methylcarbonylamino]ethyl}(6-(2-cyanophenyl)-2-{[2-(3-fluorophenyl)ethyl]amino}(3-pyridyl))carboxamide] | 42200
5 | N#Cc1ccccc1-c1ccc(C(=O)NCC2CCN(C(=O)CCCN)CC2)c(NCCc2cccc(F)c2)n1 [N-{[1-(4-aminobutanoyl)(4-piperidyl)]methyl}(6-(2-cyanophenyl)-2-{[2-(3-fluorophenyl)ethyl]amino}(3-pyridyl))carboxamide] | 6010
6 | N#Cc1ccccc1-c1ccc(C(=O)NC[C@H]2CNCCN2C(=O)CCCN)c(NCCc2cccc(F)c2)n1 [N-{[(2R)-1-(4-aminobutanoyl)piperazin-2-yl]methyl}(6-(2-cyanophenyl)-2-{[2-(3-fluorophenyl)ethyl]amino}(3-pyridyl))carboxamide] | 5480
7 | N#Cc1ccccc1-c1ccc(C(=O)NCCCN2C(=O)CC[C@@H]2CN=[N+]=[N-])c(NCCc2cccc(F)c2)n1 | 5620
8 | Cn1cc(-c2nc(NCCc3cccc(F)c3)c(C(=O)NC[C@H]3CCN3C(=O)COC(=O)CN)cc2F)cn1 [2-((2R)-2-{[(5-fluoro-2-{[2-(3-fluorophenyl)ethyl]amino}-6-(1-methylpyrazol-4-yl)(3-pyridyl))carbonylamino]methyl}azetidinyl)-2-oxoethyl 2-aminoacetate] | 45
9 | N#Cc1ccccc1-c1ccc(C(=O)NC[C@H]2CCCN2C(=O)[C@@H](N)CCCN)c(NCCc2cccc(F)c2)n1 [N-{[(2R)-1-((2S)-2,5-diaminopentanoyl)pyrrolidin-2-yl]methyl}(6-(2-cyanophenyl)-2-{[2-(3-fluorophenyl)ethyl]amino}(3-pyridyl))carboxamide] | 52
10 | CNC(=O)NCCNC(=O)c1ccc(-c2ccccc2C#N)nc1NCCc1cccc(F)c1 [(6-(2-cyanophenyl)-2-{[2-(3-fluorophenyl)ethyl]amino}(3-pyridyl))-N-{2-[(methylamino)carbonylamino]ethyl}carboxamide] | 866
11 | CC(=O)N1CC[C@@H]1CNC(=O)c1ccc(-c2ccccc2C#N)nc1NCCc1cccc(F)c1 [N-[((2R)-1-acetylazetidin-2-yl)methyl](6-(2-cyanophenyl)-2-{[2-(3-fluorophenyl)ethyl]amino}(3-pyridyl))carboxamide] | 43
12 | Cn1ccc(CNC(=O)c2ccc(-c3ccccc3)nc2NCCc2ccccn2)n1 [N-[(1-methylpyrazol-3-yl)methyl]{6-phenyl-2-[(2-(2-pyridyl)ethyl)amino](3-pyridyl)}carboxamide] | 2730

More lines, now with the values ahead:

Row | IC50 [nM] | Compound
13 | 21 | O=C(NCc1cccnc1)c1cc(Br)c(-c2cn[nH]c2)nc1NCCc1cccc(F)c1 [(5-bromo-2-{[2-(3-fluorophenyl)ethyl]amino}-6-pyrazol-4-yl(3-pyridyl))-N-(3-pyridylmethyl)carboxamide]
14 | 2490 | Cn1cc(-c2nc(NCCc3cccc(F)c3)c(C(=O)NCCCNC(=O)CN)cc2F)cn1 [2-amino-N-{3-[(5-fluoro-2-{[2-(3-fluorophenyl)ethyl]amino}-6-(1-methylpyrazol-4-yl)(3-pyridyl))carbonylamino]propyl}acetamide]
15 | 60 | N#Cc1ccccc1-c1ccc(C(=O)NCc2cccc(C(N)=O)n2)c(NCCc2cccc(F)c2)n1 [6-{[(6-(2-cyanophenyl)-2-{[2-(3-fluorophenyl)ethyl]amino}-3-pyridyl)carbonylamino]methyl}pyridine-2-carboxamide]
16 | 285 | C[C@H](CNC(=O)c1cc(F)c(-c2cnn(C)c2)nc1NCCc1cccc(F)c1)NC(=O)C(C)(C)N
17 | 50 | Cn1cc(-c2nc(NCCc3cccc(F)c3)c(C(=O)NCc3cccnc3CN)cc2C#N)cn1 [N-{[2-(aminomethyl)(3-pyridyl)]methyl}(5-cyano-2-{[2-(3-fluorophenyl)ethyl]amino}-6-(1-methylpyrazol-4-yl)(3-pyridyl))carboxamide]
18 | 326 | Cc1ccccc1CCNc1nc(-c2ccccc2)ccc1C(=O)NCc1cccnc1 [(2-{[2-(2-methylphenyl)ethyl]amino}-6-phenyl(3-pyridyl))-N-(3-pyridylmethyl)carboxamide]
19 | 65 | CNC(=O)CNC(=O)c1cc(F)c(-c2cn[nH]c2)nc1NCCc1cccc(F)c1 [2-[(5-fluoro-2-{[2-(3-fluorophenyl)ethyl]amino}-6-pyrazol-4-yl(3-pyridyl))carbonylamino]-N-methylacetamide]
20 | 37 | N#Cc1ccccc1-c1ccc(C(=O)NCc2cccc(CO)n2)c(NCCc2cccc(F)c2)n1 [(6-(2-cyanophenyl)-2-{[2-(3-fluorophenyl)ethyl]amino}(3-pyridyl))-N-{[6-(hydroxymethyl)(2-pyridyl)]methyl}carboxamide]
21 | 3250 | N#Cc1ccccc1-c1ccc(C(=O)N[C@H]2CCNC2=O)c(NCCc2cccc(F)c2)n1 [N-((3S)-2-oxopyrrolidin-3-yl)(6-(2-cyanophenyl)-2-{[2-(3-fluorophenyl)ethyl]amino}(3-pyridyl))carboxamide]
22 | 8750 | O=Cc1ccccc1-c1ccc(C(=O)NCc2cccnc2)c(NCCc2ccccn2)n1 [{6-(2-formylphenyl)-2-[(2-(2-pyridyl)ethyl)amino](3-pyridyl)}-N-(3-pyridylmethyl)carboxamide]
23 | 1750 | C[C@H](CNC(=O)c1cc(F)c(-c2cnn(C)c2)nc1NCCc1cccc(F)c1)NC(=O)CNC(=O)OC(C)(C)C
24 | 12200 | N#Cc1ccccc1-c1ccc(C(=O)NC[C@H]2CNCCN2)c(NCCc2cccc(F)c2)n1 [N-[((2R)piperazin-2-yl)methyl](6-(2-cyanophenyl)-2-{[2-(3-fluorophenyl)ethyl]amino}(3-pyridyl))carboxamide]
25 | 901 | Cc1cc(C(=O)NC[C@H]2CCCN2)c(NCCc2cccc(F)c2)nc1-c1cnn(C)c1 [N-[((2R)pyrrolidin-2-yl)methyl](2-{[2-(3-fluorophenyl)ethyl]amino}-5-methyl-6-(1-methylpyrazol-4-yl)(3-pyridyl))carboxamide]
26 | 73 | COC(=O)[C@H](C)CNC(=O)c1cc(F)c(-c2cn[nH]c2)nc1NCCc1cccc(F)c1 [methyl (2R)-3-[(5-fluoro-2-{[2-(3-fluorophenyl)ethyl]amino}-6-pyrazol-4-yl(3-pyridyl))carbonylamino]-2-methylpropanoate]
